From ChEMBL document CHEMBL1125472, “5-lipoxygenase: properties, pharmacology, and the quinolinyl(bridged)aryl class of inhibitors” (J Med Chem, 1992)
pIC50: −log10 of the molar value.

Key:
[1] = target: T1, Polyunsaturated fatty acid 5-lipoxygenase (Rattus norvegicus, UniProt P12527); experiment: The compound was tested for inhibitory activity against 5-lipoxygenase in rat polymorphonuclear leukocytes[PMNS]; type: cell-based
T1 sequence (P12527 whole entry): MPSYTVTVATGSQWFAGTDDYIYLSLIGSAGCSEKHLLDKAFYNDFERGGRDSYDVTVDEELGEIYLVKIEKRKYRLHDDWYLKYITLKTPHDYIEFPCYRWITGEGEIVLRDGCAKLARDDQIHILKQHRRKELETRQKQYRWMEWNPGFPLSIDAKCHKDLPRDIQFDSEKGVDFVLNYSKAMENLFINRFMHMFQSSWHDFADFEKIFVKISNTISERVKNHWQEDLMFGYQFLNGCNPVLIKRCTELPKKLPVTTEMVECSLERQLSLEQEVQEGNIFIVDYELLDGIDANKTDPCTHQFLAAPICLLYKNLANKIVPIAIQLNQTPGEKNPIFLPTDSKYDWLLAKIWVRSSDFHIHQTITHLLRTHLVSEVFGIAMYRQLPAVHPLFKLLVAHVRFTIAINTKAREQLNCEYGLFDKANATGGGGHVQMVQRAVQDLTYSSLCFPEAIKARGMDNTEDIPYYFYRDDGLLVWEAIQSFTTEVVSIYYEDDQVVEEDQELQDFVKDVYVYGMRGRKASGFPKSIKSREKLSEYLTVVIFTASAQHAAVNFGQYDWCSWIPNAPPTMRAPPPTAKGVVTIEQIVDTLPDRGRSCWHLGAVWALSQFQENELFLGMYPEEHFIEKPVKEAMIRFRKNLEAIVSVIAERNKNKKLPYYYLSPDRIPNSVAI

[2] = target: T2, Polyunsaturated fatty acid 5-lipoxygenase (Rattus norvegicus) (UniProt P12527); experiment: The compound was tested for inhibition of 5-lipoxygenase in rat RBL-2H3 cells; type: cell-based
T2 sequence (whole entry): T1 sequence (P12527 whole entry)

[3] = target: T2, Polyunsaturated fatty acid 5-lipoxygenase (Rattus norvegicus); experiment: The compound was tested for inhibition of 5-lipoxygenase translocation in SAR in rat RBL-2H3 cells; type: cell-based
Cavia porcellus = species: Cavia porcellus; experiment: The effective dose which inhibits UVB-induced guinea pig skin erythema; type: functional
Mus musculus = species: Mus musculus; experiment: The effective dose which inhibits […](AA) and tetradecanoylphorbol acetate(TPA) induced inflammation; type: functional
[4] = target: T3, Prostaglandin G/H synthase (cyclooxygenase) (Mus musculus, UniProt P22437+Q05769); experiment: The compound was tested for inhibitory activity against cyclooxygenase in mouse macrophages; type: protein assay
T3 sequence (P22437 whole entry): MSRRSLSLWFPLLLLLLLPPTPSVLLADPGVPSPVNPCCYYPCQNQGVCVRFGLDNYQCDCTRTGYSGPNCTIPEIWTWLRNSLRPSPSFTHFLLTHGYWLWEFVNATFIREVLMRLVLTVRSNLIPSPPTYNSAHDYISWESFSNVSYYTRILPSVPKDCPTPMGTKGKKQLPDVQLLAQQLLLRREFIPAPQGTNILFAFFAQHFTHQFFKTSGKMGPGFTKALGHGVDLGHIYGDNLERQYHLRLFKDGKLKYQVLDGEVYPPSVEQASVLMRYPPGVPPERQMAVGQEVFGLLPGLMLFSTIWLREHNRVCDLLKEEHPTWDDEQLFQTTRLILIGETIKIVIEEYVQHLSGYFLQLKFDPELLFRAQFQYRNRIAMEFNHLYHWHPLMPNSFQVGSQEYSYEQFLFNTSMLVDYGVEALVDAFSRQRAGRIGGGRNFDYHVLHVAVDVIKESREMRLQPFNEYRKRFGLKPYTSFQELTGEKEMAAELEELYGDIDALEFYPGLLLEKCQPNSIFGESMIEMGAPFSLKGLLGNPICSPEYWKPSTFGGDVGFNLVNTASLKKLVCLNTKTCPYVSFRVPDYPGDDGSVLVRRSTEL
T3 sequence (Q05769 whole entry): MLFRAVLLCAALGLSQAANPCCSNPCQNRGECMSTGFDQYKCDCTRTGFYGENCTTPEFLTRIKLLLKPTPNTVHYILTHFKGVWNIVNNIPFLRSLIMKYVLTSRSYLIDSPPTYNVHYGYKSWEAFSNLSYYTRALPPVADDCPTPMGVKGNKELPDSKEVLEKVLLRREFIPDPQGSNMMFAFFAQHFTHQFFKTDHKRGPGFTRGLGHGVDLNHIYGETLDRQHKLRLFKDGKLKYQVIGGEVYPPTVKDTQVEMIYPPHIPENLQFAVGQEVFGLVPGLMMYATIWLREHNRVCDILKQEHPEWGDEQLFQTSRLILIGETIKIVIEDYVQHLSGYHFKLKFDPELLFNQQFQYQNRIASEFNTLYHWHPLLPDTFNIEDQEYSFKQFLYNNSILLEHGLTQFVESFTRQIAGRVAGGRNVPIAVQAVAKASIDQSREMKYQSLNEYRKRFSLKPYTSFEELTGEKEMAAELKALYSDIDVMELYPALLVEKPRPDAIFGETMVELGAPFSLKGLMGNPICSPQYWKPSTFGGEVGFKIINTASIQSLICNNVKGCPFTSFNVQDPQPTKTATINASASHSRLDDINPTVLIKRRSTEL

RBL-2H3 = experiment: The compound was tested for inhibition LTC4 synthesis in RBL-2H3 Cells; type: functional, Rattus norvegicus

pIC50 [1]: 6.40
Inhibition [2]: > 10 µM
Inhibition [3]: 500 nM
IC50 [4]: 44000 nM
Structure (SMILES): c1ccc2nc(COc3cccc4ccccc34)ccc2c1
ED50 (Cavia porcellus): 0.25 mg/spot
ED50 (Mus musculus): 0.3 mg ear-1
Inhibition (RBL-2H3): 450 nM
